{"source": "patent US7960168B2", "about": "“Biologically active substance transfer sheet, cell culture kit constituted of cell culture plate and biologically active substance transfer sheet, producing method thereof and method for screening cell culture conditions utilizing the same” (Canon Kabushiki Kaisha, priority 2003, dated 2011)", "format_in_all_cases": "cell-based", "key": {"[1]": {"test_system": "mouse skeletal muscle cell strain C2C12", "assay": "C2C12 culture with BMP-2, sustained-release IGF-I and timed FGF-2 addition, ALP staining (Example 3)", "method": "On the other hand, the 20 μg/ml solution of the insulin-like growth factor (IGF-I) contained 5% glycerin and 3% styrene-acrylic resin monoethanolamine salt (average molecular weight 8,000, acid value 250) for controlled release of IGF. Ink cartridges were washed with 70% ethanol, and were filled with the respective solutions of the biologically active substances.\nEach polyolefin sheet was processed in advance to have minute holes at positions corresponding to the wells of a 96 well plate to allow gas exchange. A DMEM culture liquid containing FBS by 2% was put in wells of five 96-well transparent microplates. […] Then, in each well, cells of a mouse skeletal muscle cell strain C2C12 were added. Next, a transfer sheet carrying IGF-I was superimposed on each of the microplate and pressed from the above using the above jig so that each region of the sheet came in contact with the culture liquid in each well to gradually release IGF-I into the culture liquid, and cell culture was started. The above operations were carried out in the same manner with the five microplates. After a predetermined time from the start of the culture, the transfer sheet of one of the microplates was replaced by a transfer sheet carrying FGF-2 to dissolve FGF-2 into the culture liquid. After that the transfer sheet was replaced by the previous IGF-I sheet and the culture was continued. All the cells were cultured for 114 hours in total at 37° C., in humidified air containing 5% CO2. The FGF-2 addition was conducted at the following points:\n(1) immediately after the start of culture;\n(2) 12 hours after the start of culture;\n(3) 24 hours after the start of culture;\n(4) 48 hours after the start of culture;\n(5) 72 hours after the start of culture."}, "[2]": {"test_system": "mouse skeletal muscle cell strain C2C12", "assay": "C2C12 culture with transfer sheet carrying b-FGF, IGF-I and BMP-2, microscope observation (Example 1)", "conditions": "C2C12, 96 hours culture", "quoted_text": "Basic fibroblast cell growth factor (b-FGF), insulin-like growth factor (IGF-I) and bone morphogenetic protein (BMP-2) were used as the biologically active substance. b-FGF was dissolved in a physiological saline solution, IGF-I in 10 mM acetic acid, and BMP-2 in 4 mM hydrochloric acid to prepare solutions each containing the biologically active substance at a concentration of 20 μg/ml and 5% glycerin. Ink cartridges were washed with 70% ethanol, to which the respective solutions prepared above were filled.\nThen, on a base of a polyolefin sheet (NOVIX-II® manufactured by Asahi Techno Glass), sterilized in advance with a sterilizing lamp, the biologically active substances were discharged by using an ink jet printer (Ink jet printer F930, Canon). […]\nThe cells after the culture were treated with 10% formalin for 15 minutes and then with methanol for 15 minutes, and finally with a 1000-fold dilution of fluorescent dye (TOTO-3 manufactured by Molecular Probe) for 30 minutes for fluorescent staining of DNA. […] Also the cells were subjected to freeze-fracture and the creatinkinase (KP) and alkaliphosphatase (ALP) activities were measured."}, "[3]": {"test_system": "mouse skeletal muscle cell strain C2C12", "assay": "C2C12 culture on plate with immobilized b-FGF and IGF-I and BMP-2 transfer sheet, optical microscope (Example 5)", "conditions": "C2C12, 96 hours", "quoted_text": "The following method was employed for acting biologically active substances in combination on cells. As the biologically active substances, there were employed basic fibroblast cell growth factor (b-FGF), insulin-like growth factor (IGF-I) and bone morphogenetic protein (BMP-2).\nFirst, bFGF and IGF-I were immobilized onto a polystyrene 96-well cell culture plate in the following manner.\nOn the cell culture plate coated with poly-L-lysine, a solution (1.5 mg/ml) of active dextran activated with tresyl chloride was added to bind the activated dextran to the plate. Then carbonate buffer solutions containing b-FGF and IGF-I respectively were prepared, applied to the microplate with various amounts. The microplate was left to stand for 12 hours at 4° C. to prepare a cell culture plate including areas where b-FGF and IGF-I were immobilized either singly or in combination with different concentrations, as well as control areas without immobilization.\nA polystyrene sheet having projections corresponding the wells of the microplate was provided and sterilized. […]\nThen the cells were treated with 10% formalin for 15 minutes and then with methanol for 15 minutes, and reacted with a fluorescent dye for 30 minutes for fluorescent staining of DNA. […] Thus the complex effects of three factors, namely immobilized bFGF, soluble IGF-I and BMP-2, to the cells were analyzed."}, "[4]": {"test_system": "mouse skeletal muscle cell strain C2C12", "assay": "C2C12 culture with sequential transfer sheets A and B, CK and ALP activities (Example 2)", "conditions": "C2C12, areas containing IGF-I only", "from_the_text": "As the biologically active substances, fibroblast cell growth factor-2 (FGF-2), insulin-like growth factor-I (IGF-I), bone morphogenetic protein-2 (BMP-2) and transforming growth factor-β (TGF-β) were employed.\nA DMEM culture liquid containing 2% FBS was put into wells of two 96-well transparent microplates 1 and 2. […] In this manner, the sheet A was used to provide FGF-2 and IGF-I to the microplate 1, and the sheet B was used to provide BMP-2 and TGF-β to the microplate 2. Then, in each well of each microplate, cells of mouse skeletal muscle cell strain C2C12 were cultured for 48 hours in humidified air supplied with 5% CO2. 48 hours after the start of the culture, the culture liquid was removed from each cell by suction. After fresh 2% FBS/DMEM was added to each well, a transfer sheet B was applied to the microplate 1 to supply BMP-2 and TGF-β, while a transfer sheet B was applied to the microplate 2 to supply FGF-2 and IGF-I, and the cell culture was conducted for further 48 hours."}, "nerve cell strain PC12": {"test_system": "nerve cell strain PC12", "assay": "PC12 culture with immobilized EGF and dissolved EGF/NGF, hematoxilin-eosin staining (Example 6)", "conditions": "PC12, 48 hours", "method": "An epidermal cell growth factor (EGF) and a nerve cell growth factor (NGF) were employed as the biologically active substances. A culture plate of polystyrene 96-well cell culture plate was prepared by a process similar to that in Example 5, providing areas (wells) where EGF was immobilized with stepwise concentrations, and control areas (wells) of no immobilization. Separately, a stretchable polyolefin sheet was coated with hydroxypropyl cellulose by using a bar coater and heated for 10 minutes at 60° C. to form a holding layer. Then EGF and NGF were provided on the sheet by using a Canon ink jet printer PIXUS950i to obtain a transfer sheet on which areas carrying EGF and NGF singly or in combination. Screening was conducted with these cell culture plate and transfer sheet.\nThe transfer sheet was placed on the cell culture plate sterilized in advance with a sterilizing lamp and filled with a culture liquid, then the areas carrying biological substance(s) of the sheet were brought into contact with the culture liquid in the wells by pushing the opposite surface of the sheet with a pointed article, and the contact was maintained for 15 minutes under light shaking to dissolve the biologically active substance in the culture liquid. […]"}}}
{"substance": "b-FGF: Basic fibroblast cell growth factor, a cell growth factor used as biologically active substance", "values": [{"measurement": "ALP staining (index for bone differentiation by BMP-2)", "setting": "[1]; FGF-2 added (1) immediately after the start of culture", "result": "stained portions were scarcely observed"}, {"measurement": "ALP staining (index for bone differentiation by BMP-2)", "setting": "[1]; FGF-2 added (2) 12 hours after the start of culture", "result": "stained portions were scarcely observed"}, {"measurement": "ALP staining (index for bone differentiation by BMP-2)", "setting": "[1]; FGF-2 added (3) 24 hours after the start of culture", "result": "portions stained with ALP were confirmed"}, {"measurement": "ALP staining (index for bone differentiation by BMP-2)", "setting": "[1]; FGF-2 added (4) 48 hours after the start of culture", "result": "portions stained with ALP were confirmed"}, {"measurement": "ALP staining (index for bone differentiation by BMP-2)", "setting": "[1]; FGF-2 added (5) 72 hours after the start of culture", "result": "portions stained with ALP were confirmed"}, {"measurement": "bone differentiation from muscle cells into bone cells", "setting": "[1]; adding FGF-2 within 24 hours after the start of the culture", "result": "significantly suppressed"}, {"measurement": "cell proliferation (microscope observation)", "setting": "[2]; areas containing b-FGF", "result": "accelerated depending on the concentrations"}, {"measurement": "cell proliferation (optical microscope)", "setting": "[3]; areas containing immobilized b-FGF", "result": "cell proliferation"}]}
{"substance": "IGF-I: insulin-like growth factor used as biologically active substance", "values": [{"measurement": "differentiation into muscle cells (microscope observation)", "setting": "[2]; areas containing IGF-I", "result": "accelerated depending on the concentrations"}, {"measurement": "muscle differentiation (CK relative activity)", "setting": "[4]", "result": "accelerated"}, {"measurement": "muscle differentiation (optical microscope)", "setting": "[3]; areas containing IGF-I", "result": "muscle differentiation"}]}
{"substance": "EGF: epidermal cell growth factor, immobilized on the plate or dissolved from the sheet", "values": [{"measurement": "effect on proliferation and differentiation (nuclei and cell morphology), immobilized state versus dissolved state", "setting": "nerve cell strain PC12", "result": "affected the PC12 cells differently"}]}
